In US9220725B2, “Cationic latex as a carrier for bioactive ingredients and methods for making and using the same” (priority 2006, dated 2015) one finds degradation during polymerization, antifungal performance and Solubility data, which are given here for 6 molecules.

Series [1] in a line: Stability of additive during polymerization. Conditions: incorporated in relatively high amounts. It counts as physicochemical. From the text:
Ideally, the materials are substantially unreactive during the polymerization conditions, so they are not degraded during polymerization. In some embodiments, low levels of additive might be observed, whether due to degradation, or difficulty in extraction from the polymer latex. In any case, retention of the additive in the latex leads to retention of antifungal properties in the finished paper.
The polymerization temperature was investigated as a potential contributor to degradation, and it was kept as low as was feasible (typically <70° C.). The samples were stripped at the end of polymerization to the desired solids content.

Series [2] relates to fungal species. As to the kind of experiment: 30-III fungal test on 1"X1" chip of dried latex, growth observed after 7 days. Conditions: 7 day incubation. Format: cell-based. The procedure: The results observed in the G-21 study were also duplicated in a shorter (7 day incubation) fungal study (referred to herein as 30-III).
The 30-III fungal test was based on making a 1″X1″ chip of the dried latex and inoculating the fungal species directly on to the sample and then observing its growth after 7 days. This is not as rigorous a test as the G-21 test, but gave a quick indication of the efficacy of the additives.

Series [3] has as its system fungal species. Description: ASTM D-3273 on coated paper, increased coating thickness, spores in humidity chamber, 28 days. It counts as cell-based. As to the method:
A second round of testing was performed using an increased coating thickness to ensure full coverage of the paper surface. The second round of testing of the coated paper samples were tested according to ASTM D-3273. In this study, the duration remained the same (28 days), but the fungal species were not directly inoculated on the surface. Rather, they were maintained in the humidity chamber as spores that would then land on the surface of the coated paper as in a real world example. The results of this study are outlined in FIG. 3.

Series [4] is described as follows: Solubility of additives used in polymerization. It counts as physicochemical.

Where two headings read alike, the source gives them in different places.

Take `Cc1ccc(S(=O)(=O)C(I)I)cc1` [Amical AF, Diiodomethyltoluyl sulfone]: the degradation during polymerization result in series [1] was “degraded”. The antifungal performance result in the series with fungal species [2] is recorded as “some fungal inhibition”; in the series with fungal species [3], “effective”. For the same molecule, the Solubility result in series [4] (in monomer where given) was “Limited”.

For the molecule `[Na+].[O-]c1ccccc1-c1ccccc1` [Microban P2, Sodium orthophenyl phenate], the Solubility entry in series [4] (in water) was “soluble”.

Take `CCCC1COC(Cn2cncn2)(c2ccc(Cl)cc2Cl)O1` (centres unmarked) [Microban PZ, Propiconazole]: the Solubility entry in series [4] is reported as “Fairly soluble”.

With `CC(C)(C)C(O)(CCc1ccc(Cl)cc1)Cn1cncn1` (centres unmarked) [Microban TZ, Tebuconazole], the Solubility entry in series [4] was “Fairly soluble”.

For the molecule `Oc1cc(Cl)ccc1Oc1ccc(Cl)cc1Cl` [Triclosan, Chlorodiphenyl ether, reference compound], the Solubility entry in series [4] (in monomer where given) is listed as “Solid. Fairly”.

As to Zinc pyrithione [Microban Z01], the antifungal performance entry in the series with fungal species [2] is “performed well”; in the series on fungal species [3], “did not perform well”. Also, the Solubility entry in series [4] (in monomer where given) is “Insoluble in”.
